Laboratory results as given in patent US10011868B2, “Reactivity-dependent and interaction-dependent PCR” (priority 2009, dated 2018).
Where two headings read alike, the source gives them in different places. Numbered stars: 1 amine (or outer) side, 2 acyl side, 3 side chain; on linkers, the order of the positions; unused ones are H or OH. Peptide text beside a SMILES is read from it. CO = O=C([*:1])[*:2]

Experiments:
[1] = target: 68-nt DNA aptamer that binds daunomycin; settings: DNA aptamer and daunomycin; cited from earlier work
streptavidin (1a-SA) = target: T1, streptavidin (1a-SA) (Streptomyces avidinii, UniProt P22629); test: ID-PCR on single target-ligand pair, qPCR threshold cycle (FIG. 20b); assay type: binding; settings: with 1a-SA, Klenow extension and qPCR
T1 construct: 5'-carboxylate ssDNA oligonucleotide 1a (Cy3-labelled), chemically coupled via NHS ester; purchased New England Biolabs
T1 sequence (P22629 25-183): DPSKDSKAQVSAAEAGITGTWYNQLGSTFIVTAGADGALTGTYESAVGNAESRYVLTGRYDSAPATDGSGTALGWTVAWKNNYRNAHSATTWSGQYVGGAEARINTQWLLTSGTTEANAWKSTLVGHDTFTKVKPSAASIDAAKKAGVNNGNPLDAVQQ
Procedure: We investigated whether binding between a small molecule and a protein could replace a covalent linkage in a DNA hairpin and support extension and PCR. […] The target and ligand strands shared a 6-nt complementary region.
An extension mixture consisting of 10×NEB Buffer 2 (2 μL), dNTPs (660 pmol each in 2 μL water), and the target strand (200 fmol in 9 μL PBS) was incubated at 37° C. for 5 minutes. The appropriate ligand strand (200 fmol in 2 μL water) was added and the reaction mixture was incubated at 37° C. for 15 minutes. Klenow fragment exo^− (2.5 U in 5 μL of 1×NEB Buffer 2, New England Biolabs) was added. The primer extension reaction (final volume=20 μL) was incubated at 37° C. for 15 minutes. The polymerase was inactivated by heating to 75° C. for 20 minutes.
For each 25 μL qPCR reaction, 12.5 μL of 2×SYBR Green iQ Supermix (Bio-Rad) was combined with 1 μL of 10 μM Primer A, 1 μL of 10 μM Primer B, and 9.5 μL Milli Q H2O. […] Quantitative PCR was performed using a CFX-96 Real-Time System with a C1000 Thermal Cycler (Bio-Rad). […]
All primer extension and qPCR reactions were performed as described above, except that free ligand (200 pmol in 2 μL 10% DMSO) or DMSO (2 μL of 10% DMSO) was added when appropriate. […] Unless otherwise noted, PCR products were analyzed by PAGE on 10% TBE gels at 200 V for 25 minutes staining with ethidium bromide and imaging on a Chemilmager (AlphaInnotech). […]

streptavidin [2] = target: T2, streptavidin (Streptomyces avidinii, UniProt P22629); test: Gel shift of 2b-desthiobiotin/streptavidin complex (FIG. 25c); assay type: binding; settings: duplex 10 nM, read-out: apparent Kd for streptavidin
T2 construct: 5'-carboxylate ssDNA oligonucleotide 1a (Cy3-labelled), chemically coupled via NHS ester; purchased New England Biolabs
T2 sequence (P22629 25-183): as above
Procedure: The DNA-ligand conjugate 2b-desthiobiotin was hybridized to a complementary 20-mer carrying a Cy3 label at the 3′-end. The resulting duplex (10 nM) was incubated with increasing concentrations of streptavidin in binding buffer (145 mM NaCl, 10 mM Tris/HCl, 10 mM MgCl2, 7 mM Na2PO4, 1.9 mM KCl, 1 mM dithiothreitol, pH 7.4), for 1 h and analyzed on a 20% TBE polyacrylamide gel. The appearance of a higher molecular weight band indicated formation of a streptavidin-2b-desthiobiotin complex. The apparent Kd was determined from the streptavidin concentration for which the bands corresponding to free DNA and to the complex were of approximately equal intensity.

streptavidin (SA) = streptavidin (SA) (Streptomyces avidinii, UniProt P22629); settings: free ligand and streptavidin; cited from earlier work
streptavidin (SA), sequence (P22629 25-183): as above

streptavidin [3] = target: T2, streptavidin; test: ID-PCR model selection, ligand library x target library in one solution (FIG. 22); assay type: binding; settings: DNA-linked ligand; relative to control lacking proteins; 261 ligand x 259 target sequences
Procedure: (§1) Finally, we tested the ability of ID-PCR to simultaneously evaluate all possible combinations of multiple ligands and multiple targets in a single solution. […] The negative control ligand and target were conjugated to libraries of 256 different sequence tags. The resulting solution therefore contained equimolar quantities of each of 261 ligand sequences and each of 259 target sequences, collectively representing 67,599 possible ligand-target sequence combinations. A control sample was prepared identically except using DNA not conjugated to any protein targets. Both samples were subjected to ID-PCR followed by high-throughput DNA sequencing.
(§2) A control primer extension reaction was also performed using the same pool of ligand strands, but with a pool of target strands lacking conjugated proteins (1, 1i, 1j, 60 pM each and 1k, 9.8 nM). Adapter sequences required for Illumina sequencing, as well as barcodes identifying the input and selection experiments, were installed by PCR with either Primer C (input control) or Primer D (selection) and Primer E. The appropriate cycle number for each reaction was determined by qPCR evaluation, such that preparative PCR reactions (50 μL total volume) were stopped in the exponential amplification phase in order to minimize dynamic compression during PCR. […]

carbonic anhydrase [4] = target: T3, carbonic anhydrase (Bos taurus, UniProt P00921); test: Carbonic anhydrase enzymatic activity inhibition, 4-nitrophenyl acetate substrate (FIG. 25a,b); assay type: biochemical, bovine; settings: 37° C.; read-out: Ki for CA
T3 sequence (P00921 whole entry): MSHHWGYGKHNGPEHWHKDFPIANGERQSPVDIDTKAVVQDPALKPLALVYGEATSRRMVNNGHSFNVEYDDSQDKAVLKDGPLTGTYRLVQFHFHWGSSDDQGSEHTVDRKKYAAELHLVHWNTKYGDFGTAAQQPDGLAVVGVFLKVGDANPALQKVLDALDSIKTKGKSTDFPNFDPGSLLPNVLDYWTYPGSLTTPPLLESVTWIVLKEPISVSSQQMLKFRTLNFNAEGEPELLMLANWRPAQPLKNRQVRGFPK

trypsin [5] = target: T4, trypsin (Bos taurus, UniProt P00760); test: Trypsin inhibition, fluorogenic substrate Z-Arg-AMC (FIG. 25d); assay type: biochemical, bovine
T4 sequence (P00760 24-246): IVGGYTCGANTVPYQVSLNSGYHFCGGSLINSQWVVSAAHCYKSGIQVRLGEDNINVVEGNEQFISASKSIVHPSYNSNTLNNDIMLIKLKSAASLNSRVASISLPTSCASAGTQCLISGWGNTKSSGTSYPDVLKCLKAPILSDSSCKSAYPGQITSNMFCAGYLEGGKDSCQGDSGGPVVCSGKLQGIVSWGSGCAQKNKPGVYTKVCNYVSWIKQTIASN
Procedure: Conditions were adopted from a previously reported protocol.^17 Trypsin (200 fmol) was diluted in 90 μL PBS and was incubated with various concentrations of antipain, a known inhibitor of tryptic proteolysis, or 2e-antipain. The solution was equilibrated at room temperature for 10 minutes and at 35° C. for 5 minutes before addition of the fluorogenic proteolytic substrate Z-Arg-AMC (Bachem) (10 nmol in 10 μL 50% DMSO) (final volume=100 μL).
Equation Used to Fit Ki from Inhibitory Curves (FIGS. 25a, b, d).
The Ki was determined by fitting the following equation to the plot of normalized activity vs. inhibitor concentration: Vo=c+d(([E]tot+[i]tot+Ki)−sqrt((−[E]tot−[I]tot−Ki)^2−4*[E]tot*[I]tot))/(2*[E]tot), where Vo is initial reaction velocity, [E]tot is total enzyme concentration, [I]rot is total inhibitor concentration; c and d are variable parameters for the maximum Vo and for the difference between the minimum and maximum Vo, respectively.

trypsin [6] = target: T4, trypsin; settings: trypsin and antipain; cited from earlier work
carbonic anhydrase [7] = target: T3, carbonic anhydrase; test: ID-PCR model selection, ligand library x target library in one solution (FIG. 22); assay type: binding, bovine; settings: DNA-linked ligand; relative to control lacking proteins; 261 ligand x 259 target sequences
Procedure: as §1, §2

[8] = target: carbonic anhydrase II (CA) (Bos taurus, UniProt P00921); settings: cited from earlier work
carbonic anhydrase II (CA), sequence (P00921 whole entry): as the sequence (P00921 whole entry) above

With COc1cccc2c1C(=O)c1c(O)c3c(c(O)c1C2=O)C[C@@](O)(C(C)=O)C[C@@H]3O[C@H]1C[C@H](N)[C@H](O)[C@H](C)O1 [daunomycin] as the compound, how does the Kd [1] read?
Its Kd is 272 nM.

For “2b-desthiobiotin: ligand strand 2 conjugated to desthiobiotin (SEQ 57) (TGGATCGTGATGACTGTCCCGACAAGCATACGTATCTCACT; desthiobiotin conjugated, position not given here)”, which “amplification efficiency in ID-PCR” value (streptavidin (1a-SA)) is on record?
Its value is “comparable to that of 2a-biotin”.

What about the Kd (streptavidin [2]) of the same compound?
The Kd was 8 nM.

Which Kd (streptavidin (SA)) does the source give for C[C@@H]1NC(=O)N[C@@H]1CCCCCC(=O)O [desthiobiotin] here?
Its Kd is 2 nM.

What about the “Enrichment Factor” value (streptavidin [3]) of the same compound?
Its value is 3078.

Which Ki (carbonic anhydrase [4]) does the source give for “2s-GLCBS: GLCBS-DNA conjugate (SEQ 78) (DNA TGGATCGTGATGACTGTCCCGACAAGGATCCGTATCTCACT; DNA, backbone and methylation of C not given here; GLCBS conjugated at 3' end, further chemistry not fully specified)” here?
Its Ki is 380 nM.

Which “Enrichment Factor” value (streptavidin [3]) does the source give for O=C(O)CCCC[C@@H]1SC[C@@H]2NC(=O)N[C@@H]21 [biotin] here?
Its value is 860.

With CC(C)[C@H](NC(=O)[C@H](CCCNC(=N)N)NC(=O)N[C@@H](Cc1ccccc1)C(=O)O)C(=O)N[C@H](C=O)CCCNC(=N)N [antipain] ({Phe-CO}-Arg-Val-Arg-aldehyde) as the compound, how does the Ki (trypsin [5]) read?
Its Ki is 39.5 nM.

What about the Ki (trypsin [6]) of the same compound?
Its Ki is 100 nM.

Which Ki (carbonic anhydrase [4]) does the source give for Gly-Leu-CBS [GLCBS] here?
Its Ki is 470 nM.

What about the “Enrichment Factor” value (carbonic anhydrase [7]) of the same compound?
The value was 225.

And the Ki ([8]; FIG. 20 legend)?
The Ki was 9 nM.

What about the Kd ([8]; text b276) of the same compound?
Its Kd is 9 nM.
